In patent publication US20250221966A1, “RXFP1 AGONISTS” (BRISTOL-MYERS SQUIBB COMPANY, priority 2021, published 2025) one finds EC50 data, which are given here for 22 molecules.

This assay concerns the target T1, human RXFP1 (Homo sapiens, UniProt Q9HBX9).
T1 construct: expressed in transfected cells
T1 sequence (Q9HBX9 1-757): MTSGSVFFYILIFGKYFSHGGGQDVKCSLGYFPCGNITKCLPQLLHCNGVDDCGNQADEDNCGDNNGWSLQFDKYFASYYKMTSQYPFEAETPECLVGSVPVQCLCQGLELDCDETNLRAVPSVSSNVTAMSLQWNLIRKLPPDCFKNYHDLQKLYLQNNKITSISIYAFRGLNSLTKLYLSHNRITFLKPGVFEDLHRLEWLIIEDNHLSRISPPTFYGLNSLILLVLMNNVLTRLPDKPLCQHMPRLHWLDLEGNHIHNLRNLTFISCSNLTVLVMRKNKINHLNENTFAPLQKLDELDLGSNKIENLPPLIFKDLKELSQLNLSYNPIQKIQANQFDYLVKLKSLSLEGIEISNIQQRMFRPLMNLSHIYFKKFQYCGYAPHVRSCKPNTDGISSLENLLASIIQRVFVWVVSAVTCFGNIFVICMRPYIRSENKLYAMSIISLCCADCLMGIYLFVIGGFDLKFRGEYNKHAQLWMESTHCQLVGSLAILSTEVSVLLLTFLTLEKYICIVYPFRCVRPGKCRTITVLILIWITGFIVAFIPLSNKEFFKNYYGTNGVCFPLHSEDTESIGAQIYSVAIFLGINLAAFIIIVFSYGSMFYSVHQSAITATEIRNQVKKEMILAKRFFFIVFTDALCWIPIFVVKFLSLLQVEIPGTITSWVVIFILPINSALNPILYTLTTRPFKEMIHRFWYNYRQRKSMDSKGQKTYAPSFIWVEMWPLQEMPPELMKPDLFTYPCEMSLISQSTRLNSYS
Nature of the assay: RXFP1 cAMP assay (hRXFP1 HEK293 cAMP assay, HTRF). The format is cell-based. The settings on record: HEK293 cells stably expressing human RXFP1, 30 min at room temperature, read-out: cAMP hRXFP1 HEK293 Assay EC50. An outline of the steps: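 In a stable human RXFP1 HEK293 line, compounds acted for 30 min at RT in buffer with 0.5 mM IBMX. HTRF then quantified cellular cAMP.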
On the technique in general: cAMP levels reflect the balance of adenylyl cyclase and phosphodiesterase activity.
In general, EC50 refers to the midpoint of the concentration-response curve. With `CCOC(=O)C(NC(=O)C1CCOCC1)c1cnn(-c2ccc(OC)c(C(=O)N[C@@H]3C4CCC(/C4=C/C(F)(F)F)[C@@H]3C(=O)Nc3ccc(F)c(C(F)(F)F)c3)c2)c1` (stereo partly shown) [Example 346], the EC50 amounted to 169 nM.
Regarding `COc1ccc(-c2cc([C@H](OC(=O)NC3CCC3)C(F)(F)F)ccc2F)cc1C(=O)N[C@@H]1C2/C(=C\C(F)(F)F)C(C(O)C2O)[C@@H]1C(=O)Nc1ccc(F)c(C(F)(F)F)c1` (stereo partly shown) [Example 348], the EC50 came to 1310 nM.
To `COc1ccc(-c2cc(C(O)C(=O)O)ccc2F)cc1C(=O)N[C@H]1[C@@H](C(=O)Nc2ccc(F)c(C(F)(F)F)c2)[C@H]2CC[C@@H]1/C2=C\CC1CC(F)(F)C1` (stereo partly drawn) [Example 352, 2-(3′-(((1R,2R,3S,4R,Z)-7-(2-(3,3-difluorocyclobutyl)ethylidene)-3-((4-fluoro-3-(trifluoromethyl)phenyl)carbamoyl)bicyclo[2.2.1]heptan-2-yl)carbamoyl)-6-fluoro-4′-methoxy-[1,1′-biphenyl]-3-yl)-2-hydroxyacetic acid] belongs 64 nM; to `COc1ccc(C2CCOC2)cc1C(=O)N[C@H]1[C@@H](C(=O)Nc2ccc(F)c(C(F)(F)F)c2)[C@H]2CC[C@@H]1/C2=C\C(F)(F)F` (stereo partly drawn) [Example 360, (1R,2S,3R,4R,Z)—N-(4-fluoro-3-(trifluoromethyl)phenyl)-3-(2-methoxy-5-(tetrahydrofuran-3-yl)benzamido)-7-(2,2,2-trifluoroethylidene)bicyclo[2.2.1]heptane-2-carboxamide], 1940 nM.
To `COc1ccc(C2=NOC(C(=O)O)(C(C)(C)C)C2)cc1C(=O)N[C@H]1[C@@H](C(=O)Nc2ccc(F)c(C(F)(F)F)c2)[C@H]2CC[C@@H]1/C2=C\C(F)(F)F` (stereo partly drawn) [Example 397, 5-(tert-butyl)-3-(3-(((1R,2R,3S,4R,Z)-3-((4-fluoro-3-(trifluoromethyl)phenyl)carbamoyl)-7-(2,2,2-trifluoroethylidene)bicyclo[2.2.1]heptan-2-yl)carbamoyl)-4-methoxyphenyl)-4,5-dihydroisoxazole-5-carboxylic acid] belongs 912 nM; to `COc1ccc(C2=NOC3C(O)CC(O)C23)cc1C(=O)N[C@H]1[C@@H](C(=O)Nc2ccc(F)c(C(F)(F)F)c2)[C@H]2CC[C@@H]1/C2=C\C1CC1` (stereo partly drawn) [Example 413, (1R,2S,3R,4R,Z)-7-(cyclopropylmethylene)-3-(5-(4,6-dihydroxy-3a,5,6,6a-tetrahydro-4H-cyclopenta[d]isoxazol-3-yl)-2-methoxybenzamido)-N-(4-fluoro-3-(trifluoromethyl)phenyl)bicyclo[2.2.1]heptane-2-carboxamide], 39 nM; to `COc1ccc(C2=NOC3COCC23)cc1C(=O)N[C@H]1[C@@H](C(=O)Nc2ccc(F)c(C(F)(F)F)c2)[C@H]2CC[C@@H]1/C2=C\C1CC1` (stereo partly drawn) [Example 417, (1R,2S,3R,4R,Z)-7-(cyclopropylmethylene)-N-(4-fluoro-3-(trifluoromethyl)phenyl)-3-(2-methoxy-5-(3a,4,6,6a-tetrahydrofuro[3,4-d]isoxazol-3-yl)benzamido)bicyclo[2.2.1]heptane-2-carboxamide], 172 nM.
The value for `COc1cc(F)c(C2=NOC3COCC23)cc1C(=O)N[C@H]1[C@@H](C(=O)Nc2ccc(F)c(C(F)(F)F)c2)[C@H]2CC[C@@H]1/C2=C\C1CC1` (stereo partly drawn) [Example 419, (1R,2S,3R,4R,Z)-7-(cyclopropylmethylene)-3-(4-fluoro-2-methoxy-5-(3a,4,6,6a-tetrahydrofuro[3,4-d]isoxazol-3-yl)benzamido)-N-(4-fluoro-3-(trifluoromethyl)phenyl)bicyclo[2.2.1]heptane-2-carboxamide] was 17 nM.
Consider `COc1ccc(-c2cc(CO)on2)cc1C(=O)N[C@H]1[C@@H](C(=O)Nc2ccc(F)c(C(F)(F)F)c2)[C@H]2CC[C@@H]1/C2=C\C1CC1` [Example 423, (1R,2S,3R,4R,Z)-7-(cyclopropylmethylene)-N-(4-fluoro-3-(trifluoromethyl)phenyl)-3-(5-(5-(hydroxymethyl)isoxazol-3-yl)-2-methoxybenzamido)bicyclo [2.2.1]heptane-2-carboxamide], for which the EC50 was 28 nM.
For `COc1ccc(C2=NOC3CC(F)CC23)cc1C(=O)N[C@H]1[C@@H](C(=O)Nc2ccc(F)c(C(F)(F)F)c2)[C@H]2CC[C@@H]1/C2=C\C1CC1` (stereo partly drawn) [Example 427, (1R,2S,3R,4R,Z)-7-(cyclopropylmethylene)-N-(4-fluoro-3-(trifluoromethyl)phenyl)-3-(5-(5-fluoro-3a,5,6,6a-tetrahydro-4H-cyclopenta[d]isoxazol-3-yl)-2-methoxybenzamido)bicyclo[2.2.1]heptane-2-carboxamide], the EC50 amounted to 54 nM.
As for `COc1ccc(C2=NOC3CC(CO)CC23)cc1C(=O)N[C@H]1[C@@H](C(=O)Nc2ccc(F)c(C(F)(F)F)c2)[C@H]2CC[C@@H]1/C2=C\C1CC1` (stereo partly drawn) [Example 429, (1R,2S,3R,4R,Z)-7-(cyclopropylmethylene)-N-(4-fluoro-3-(trifluoromethyl)phenyl)-3-(5-(5-(hydroxymethyl)-3a,5,6,6a-tetrahydro-4H-cyclopenta[d]isoxazol-3-yl)-2-methoxybenzamido)bicyclo[2.2.1]heptane-2-carboxamide], the EC50 came to 2 nM.
The value for `COc1ccc(C2=NOC3CNCC23)cc1C(=O)N[C@H]1[C@@H](C(=O)Nc2ccc(F)c(C(F)(F)F)c2)[C@H]2CC[C@@H]1/C2=C\C1CC1` (stereo partly drawn) [Example 437, (1R,2S,3R,4R,Z)-7-(cyclopropylmethylene)-N-(4-fluoro-3-(trifluoromethyl)phenyl)-3-(2-methoxy-5-(3a,5,6,6a-tetrahydro-4H-pyrrolo[3,4-d]isoxazol-3-yl)benzamido)bicyclo[2.2.1]heptane-2-carboxamide] was 31 nM; that for `COC(=O)N1CC2ON=C(c3ccc(OC)c(C(=O)N[C@H]4[C@@H](C(=O)Nc5ccc(F)c(C(F)(F)F)c5)[C@H]5CC[C@@H]4/C5=C\C4CC4)c3)C2C1` (stereo partly drawn) [Example 438, methyl 3-(3-(((1R,2R,3S,4R,Z)-7-(cyclopropylmethylene)-3-((4-fluoro-3-(trifluoromethyl)phenyl)carbamoyl)bicyclo[2.2.1]heptan-2-yl)carbamoyl)-4-methoxyphenyl)-3a,4,6,6a-tetrahydro-5H-pyrrolo[3,4-d]isoxazole-5-carboxylate] was 24 nM.
To `COc1ccc(C2=NOC3CCCC23)cc1C(=O)N[C@@H]1C2CCC(/C2=C/C2CC2)[C@@H]1C(=O)Nc1ccc(F)c(C(F)(F)F)c1` (stereo partly drawn) [Example 439, (1R,2S,3R,4R,Z)-7-(cyclopropylmethylene)-N-(4-fluoro-3-(trifluoromethyl)phenyl)-3-(2-methoxy-5-(3a,5,6,6a-tetrahydro-4H-cyclopenta[d]isoxazol-3-yl)benzamido)bicyclo[2.2.1]heptane-2-carboxamide] belongs 30 nM.
For `COc1ccc(C2=NOC3COCC23)cc1C(=O)N[C@H]1[C@@H](C(=O)N[C@H](C)C2(C)CC2)[C@H]2CC[C@@H]1/C2=C\C1CC1` (stereo partly shown) [Example 447], the EC50 was 0.8 nM.
To `COc1ccc(C2=NOC3CC(CO)CC23)cc1C(=O)NC1C2CCC(C2=CC2CC2)C1C(=O)NCC(C)(C)C` (stereo not shown) [Example 453] belongs 1.9 nM; to `CCCCC1[C@H]2CC[C@@H]1[C@H](C(=O)Nc1ccc(F)c(C(F)(F)F)c1)[C@@H]2NC(=O)c1cc(C2=NOC3CC(CO)CC23)ccc1OC` (stereo partly shown) [Example 467], 4 nM; to `COc1ccc(C2=NOC3(C2)CC(CO)C3)cc1C(=O)N[C@H]1[C@@H](C(=O)Nc2ccc(F)c(C(F)(F)F)c2)[C@H]2CC[C@@H]1/C2=C\C1CC1` (stereo partly shown) [Example 511], 15.3 nM.
`COc1ccc([C@@H]2CO[C@H]3[C@@H]2OC[C@@H]3O)cc1C(=O)N[C@H]1[C@@H](C(=O)Nc2ccc(F)c(C(F)(F)F)c2)[C@H]2CC[C@@H]1/C2=C\C1CC1` [Example 536, (1R,2S,3R,4R,Z)-7-(cyclopropylmethylene)-N-(4-fluoro-3-(trifluoromethyl)phenyl)-3-(5-((3R,3aR,6S,6aR)-6-hydroxyhexahydrofuro[3,2-b]furan-3-yl)-2-methoxybenzamido)bicyclo[2.2.1]heptane-2-carboxamide]: the EC50 is 24.7 nM.
To `COc1ccc(C2=NOC3COCC23)cc1C(=O)N[C@H]1[C@@H](C(=O)NC2CCCC2)[C@H]2CC[C@@H]1/C2=C\C1CC1` (stereo partly shown) [Example 565] belongs 50.7 nM; to `CC[C@@H](NC(=O)[C@@H]1[C@H](NC(=O)c2cc(C3=NOC4COCC34)ccc2OC)[C@@H]2CC[C@H]1/C2=C/C1CC1)C1CCC1` (stereo partly shown) [Example 578], 70.8 nM; to `COc1ccc(C2=NOC(C)(C)N2C(C)C)cc1C(=O)N[C@H]1[C@@H](C(=O)Nc2ccc(F)c(C(F)(F)F)c2)[C@H]2CC[C@@H]1/C2=C\C1CC1` [Example 591], 86.6 nM.
